Molecules are shown by their SMILES.

This series in a line: gradient 5% acetonitrile 3 min, to 50% in 2 min, to 85% in 15 min, held 3 min, 100 µL/min. To be noted: column: Zorbax Extend-C18 2.1 x 50 mm; eluents: water / acetonitrile, 0.1% formic acid. Put shortly:
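Pure standards were run in mixtures of ~100 molecules by HPLC coupled to a quadrupole time-of-flight mass spectrometer. The column was a Zorbax Extend-C18 (2.1 × 50 mm, 1.8 μm) at 100 μL/min, with water and acetonitrile each containing 0.1% formic acid, in positive and negative ionization mode. Dead and dwell volumes were 40 μL and 900 μL. Retention time was taken from computationally picked adduct peaks, each manually inspected, with data collected over 3 months.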
In turn, `COc1ccc(C(C)NC(=O)c2cn3nc(Cl)ccc3n2)cc1OC` (stereo unspecified) registered an RP-LC retention time of 755 s.
With `Cc1nnc2cc(N3CCN(S(=O)(=O)c4cccs4)CC3)cnn12` the figure was 636 s; with `O=S(=O)(Cc1ccccc1)N1CCC(Oc2nc3ccccc3s2)CC1`, 1060 s; with `Cc1cc(C)c(C#N)c(SCC(=O)Nc2nccs2)n1`, 750 s.
With `O=C(CNC(=O)c1c[nH]c2ccccc12)NCCC1=CCCCC1` the figure was 710 s; with `Cc1oc(C2CCC2)nc1C(=O)NCc1cccc(C(F)(F)F)c1`, 1110 s; with `CCS(=O)(=O)N1CC(=O)N(c2ccccc2C)C(C)(C(=O)NCc2ccc(F)cc2)C1` (stereo unspecified), 809 s.
For `COc1ccc(Br)cc1Cn1nnc(C(=O)NCc2ccco2)c1N`, the RP-LC retention time is 791 s.
With `COCc1cc(=O)n(CC(=O)Nc2ccc(Cl)cc2)c(N2CCOCC2)n1` the figure was 865 s; with `CCn1cc(S(=O)(=O)Nc2cc(OC)cc(OC)c2)c2cccnc21`, 817 s; with `Cc1ccccc1-c1noc(CCc2nnc3ccc(N4CCN(c5ccc(F)cc5)CC4)nn23)n1`, 1110 s.
The figure for `CCN1C(=O)c2cccnc2Sc2cc(NC(=O)C(C)(C)C)ccc21` is 795 s.
As for `CC1(C(=O)N2CC=C(c3ccccc3)CC2)CCCCC(=O)N1` (stereo unspecified), the RP-LC retention time came out at 736 s.
Molecule `Cc1ccc(C)c(N2CCN(c3ccnc(SCC(=O)Nc4c(C)cccc4C)n3)CC2)c1` returned an RP-LC retention time of 1010 s.
With `CN(CCc1noc(COc2ccc(F)cc2)n1)C(=O)Nc1ccccc1` the figure was 856 s; with `CCCCn1cc(S(=O)(=O)N2CCN(c3ccccc3F)CC2)c2cccnc21`, 1190 s; with `Cc1ccc(S(=O)(=O)N2CCC(n3cnnc3C)CC2)c(C)c1`, 713 s.
With `COCCNCc1ccc(-c2cc(Cl)cc(Cl)c2)o1` the figure was 722 s; with `O=C(Nc1ccc(NC(=O)c2ccncc2)cc1)c1ccncc1`, 610 s; with `COc1ccc(NC(=O)N(C)CCc2noc(COc3ccccc3F)n2)cc1`, 845 s.
`COCCN1C(=O)[C@H]2CN(Cc3cccc(C(F)(F)F)c3)C[C@H]2C1=O`: the RP-LC retention time turned out to be 694 s.
With `Cc1ccc(N2CCC(NC(=O)Nc3ccccc3C(F)(F)F)C2=O)cc1` (stereo unspecified) the figure was 898 s; with `CCOc1ccc(-n2c(N3CCN(C)CC3)nc3cc(C(=O)OC)ccc3c2=O)cc1`, 645 s.
Turning to `CCC(=O)Nc1ccc(C2(C(=O)NCCC(C)C)CCCCC2)cc1`, the RP-LC retention time was 936 s.
With `COCCCNC(=O)CN1C(=O)C2CCCCN2c2ccc(C(=O)N(C)C)cc21` (stereo unspecified) the figure was 655 s; with `COc1cccc(OC)c1OCC(O)CN1CCN(c2ccccc2F)CC1` (stereo unspecified), 684 s; with `COc1ccc(OC)c2sc(NC(=O)CS(=O)(=O)c3ccc(Cl)cc3)nc12`, 854 s.
Regarding `CCOC(=O)N1CCN(C(=O)c2cn(C)nc2C)CC1`, the RP-LC retention time is 572 s.
With `CC(CCc1ccccc1)NC(=O)c1ccc(-n2cccn2)nc1` (stereo unspecified) the figure was 858 s; with `Cc1ccc(C)c(N2CCN(S(=O)(=O)c3ccc(-c4c(C)noc4C)cc3)CC2)c1`, 1250 s; with `CS(=O)(=O)c1ccc(Nc2ncccc2S(N)(=O)=O)cc1`, 668 s.
With `CCCN(CC1CCOC1)C(=O)Nc1cccc(Cl)c1` (stereo unspecified) the figure was 827 s; with `NC(=O)c1cnn2c3c(cnc12)CCCCCC3`, 801 s; with `CC1Oc2ccc(S(=O)(=O)N3CCC(C(=O)NC4CCCCCCC4)CC3)cc2NC1=O` (stereo unspecified), 907 s.
On to `Cc1ccc(S(=O)(=O)N2CCCC2c2nc(-c3cccc(C(F)(F)F)c3)no2)cc1` (stereo unspecified), for which the RP-LC retention time turned out to be 1210 s.
With `Cc1ccn2cc(-c3ccc(NS(=O)(=O)c4ccccc4Cl)cc3)nc2n1` the figure was 642 s.
On to `CCc1ccc(S(=O)(=O)N2CCc3nc(-c4ccc(OC)cc4)ncc3C2)cc1`, for which the RP-LC retention time was determined as 1140 s.
The figure for `COCCCn1c(=O)c2ccccc2n(Cc2nc(-c3ccc(OC)c(OC)c3)no2)c1=O` is 876 s; for `O=C(Cc1nnc(-c2cccc(F)c2)o1)N1CCC2(CC1)OCCO2` it is 698 s; for `O=C(Cn1c(=O)c(S(=O)(=O)c2ccccc2)cc2ccccc21)NCc1ccccc1` it is 858 s.
With `CCOc1cccc(CN2C[C@@H]3C(=O)N(Cc4ccc5c(c4)OCO5)C(=O)[C@@H]3C2)c1` the figure was 770 s; with `OC(COc1ccc(F)cc1)CN1CCN(c2cccc(Cl)c2)CC1` (stereo unspecified), 734 s; with `Fc1ccc(-c2nnc(Cc3nc(-c4ccc(F)c(F)c4)no3)o2)cc1`, 1030 s.
With `Cc1cc(N2CCN(C(=O)Nc3ccc(C)c(C)c3)CC2)nc(N2CCOCC2)n1` the figure was 666 s.
Molecule `O=C(c1ccoc1)N1CCC(N2CCc3ccccc32)CC1` registered an RP-LC retention time of 830 s.
The figure for `COc1ccc(NC(=O)CN2CCc3[nH]c4c(C)ccc(C)c4c(=O)c3C2)cc1OC` is 614 s; for `O=C1C2N=NN(c3cccc(F)c3)C2C(=O)N1c1ccccc1` (stereo unspecified) it is 925 s.
The figure for `Cc1ccc2[nH]cc(CCN3CC(C(=O)Nc4nnc(C)s4)CC3=O)c2c1` (stereo unspecified) is 785 s; for `CCOC(=O)C(C)Sc1nnc(NC(=O)c2cccc([N+](=O)[O-])c2C)s1` (stereo unspecified) it is 859 s; for `Cc1nc(N2CCN(c3ccccn3)CC2)c2c(C)c(C(=O)Nc3cccc(Cl)c3C)sc2n1` it is 752 s.
With `Cc1ccc(C(=O)NCCc2nc3cccnc3n2CC(C)C)cc1` the figure was 716 s; with `COCc1nc2c(N)cccn2n1`, 569 s; with `CC(C)NC(=O)N1Cc2ccccc2OC2(CCN(C)CC2)C1`, 591 s.
Turning to `Cc1ccc(N2CCC(NC(=O)c3cccc(C#N)c3)C2=O)cc1C` (stereo unspecified), the RP-LC retention time came out at 847 s.
The figure for `c1cc(CN2CC(Oc3ccc(-c4noc(C5CCOCC5)n4)cc3)C2)cs1` is 671 s.
With `COc1ccc(C2C(C(=O)OC(C)C)=C(C)NC3=C2C(=O)CCC3)c(OC)c1OC` (stereo unspecified), the RP-LC retention time was 778 s.
With `COc1cc(C(=O)N2CCCN(c3cc(=O)n(C)c(=O)n3C)CC2)cc(OC)c1OC` the figure was 624 s.
The figure for `CCc1ccc2c(c1)-c1ccccc1S(=O)(=O)N2CC(=O)NCc1ccncc1` is 703 s.
The figure for `CCc1cccc(NC(=O)Cn2c(=O)c(CCC(=O)NCC(C)C)nc3ccccc32)c1` is 880 s; for `COc1ccc(NC(=O)CCc2c(C)nn(-c3cc(N4CCCC4)ncn3)c2C)c(OC)c1` it is 801 s.
Turning to `CCN(CC)C(=O)N[C@@H]1C[C@@H]2c3cccc4[nH]cc(c34)C[C@H]2N(C)C1`, the RP-LC retention time amounted to 684 s.
The figure for `Cc1ccccc1OCC(=O)Nc1ccc2c(c1)N(S(=O)(=O)c1ccccc1)CCC2` is 1030 s; for `Cc1nnc2cc(N3CCN(S(=O)(=O)c4ccc(C#N)cc4)CC3)cnn12` it is 642 s; for `CCc1ccc(OCC(=O)N(Cc2ccc(OC)cc2)C2CCS(=O)(=O)C2)cc1` (stereo unspecified) it is 989 s.
The figure for `Cc1ccc(S(=O)(=O)N2C(=O)CCC2C(=O)NCc2ccc(Cl)cc2)cc1C` (stereo unspecified) is 966 s; for `COc1ccc2c(CCNC(=O)CCc3ccccc3)c[nH]c2c1` it is 796 s; for `CNC(=O)C1CN(C(=O)Nc2ccccc2C(F)(F)F)CC12CCCC2` (stereo unspecified) it is 734 s.
With `Cc1ccc(Cl)c(NS(=O)(=O)c2cc3c(s2)CCN(C(=O)C2CC2)C3)c1` the figure was 901 s.
Turning to `O=C(COc1ccccc1F)NC1CC(=O)N(C2CC2)C1` (stereo unspecified), the RP-LC retention time amounted to 611 s.
With `Cc1c(C(=O)NC2CCCC2)cnn1-c1ccc(-c2nc(C(C)C)no2)cn1`, the RP-LC retention time was 741 s.
The figure for `COc1ccccc1N1CCN(C(=O)c2cn3ccccc3n2)CC1` is 603 s.
The figure for `CCOC(=O)C1CCCN(S(=O)(=O)c2cc(-c3nc(C)c(C)s3)sc2C)C1` (stereo unspecified) is 1170 s.
In the case of `NC(=O)Cn1c2ccccc2c2ncn(Cc3nc(-c4ccccc4)no3)c(=O)c21`, the RP-LC retention time stood at 730 s.
The figure for `Cn1cc(CCN2CCN(S(=O)(=O)c3ccc(F)c(Cl)c3)CC2)c2cccnc21` is 660 s.
With `CCCc1nc2ccc(NC(=O)NCC)cc2c(=O)n1Cc1ccc(-c2ccccc2)cc1` the figure was 996 s; with `CCc1nc2cc(-c3noc(-c4ccc5ccccc5n4)n3)ccc2o1`, 1110 s.
As for `CCc1nn(CC)c(=O)c2cc(S(=O)(=O)NCc3cccc(Cl)c3)cn12`, the RP-LC retention time was determined as 982 s.
The figure for `COC(=O)CNC(=O)N1Cc2ccccc2OC2(CCN(C(C)C)CC2)C1` is 595 s.
With `O=C(C1CC1)N1CCC(Cc2noc(C3CC3)n2)C1` (stereo unspecified) the figure was 686 s; with `CCN(CC)CCCNC(=O)C1CCN(c2nc3cccnc3s2)CC1`, 570 s.
The figure for `Fc1ccccc1-c1ccc(CNCc2cccs2)o1` is 706 s.

Values taken from the METLIN SMRT retention time set (Domingo-Almenara et al. 2019).
